Measured values from patent publication US20100227853A1, “INHIBITORS OF CYCLIC AMP PHOSPHODIESTERASES” (Trustees of Boston College, priority 2008, published 2010).
Read-outs that look alike come from different tables or passages of the source.

Columns and labels:
PDE4A1 [1] = biological target: T1, PDE4A1 (Mus musculus, UniProt O89084); assay: 5FOA growth assay (high throughput screen, ED50) in fission yeast strain expressing PDE4A1; assay type: cell-based; details: for Composite Z score, PDE4A1: high throughput 5FOA growth screen, greater than 8.53 = statistically-significant inhibitor; for EC50: OD600 0.6
T1 construct: targets used in the assays are full-length proteins (as opposed to simply the catalytic domain); expressed in transfected cells; host or cells: Schizosaccharomyces pombe, PDE gene integrated in place of cgs2
T1 sequence (O89084 1-610 isoform O89084-2): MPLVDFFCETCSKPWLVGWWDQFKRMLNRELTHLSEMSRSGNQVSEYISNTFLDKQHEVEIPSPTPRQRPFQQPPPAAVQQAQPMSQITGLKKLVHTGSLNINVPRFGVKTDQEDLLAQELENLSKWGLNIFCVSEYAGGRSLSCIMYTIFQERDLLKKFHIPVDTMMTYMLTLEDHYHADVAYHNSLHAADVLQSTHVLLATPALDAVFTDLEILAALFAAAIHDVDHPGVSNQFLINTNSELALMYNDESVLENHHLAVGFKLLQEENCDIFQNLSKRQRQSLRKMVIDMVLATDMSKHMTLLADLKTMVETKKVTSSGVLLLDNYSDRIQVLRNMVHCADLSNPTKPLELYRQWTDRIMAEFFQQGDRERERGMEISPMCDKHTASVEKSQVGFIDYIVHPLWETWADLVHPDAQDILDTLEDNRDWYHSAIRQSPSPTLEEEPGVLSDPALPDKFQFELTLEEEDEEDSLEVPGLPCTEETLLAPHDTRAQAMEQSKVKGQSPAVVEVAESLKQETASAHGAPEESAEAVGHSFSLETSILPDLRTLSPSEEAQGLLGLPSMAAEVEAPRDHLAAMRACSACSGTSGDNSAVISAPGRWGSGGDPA
Method in brief: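 Readout is OD600 after 48 h at 30° C in 5FOA medium, starting from 0.5–4×10^5 cells/ml; 5 mM cAMP served as positive control. Yeast expressing mouse PDE4A1 or PDE4B3 with an fbp1-ura4 reporter was first grown to exponential phase in EMM plus 0.5–2.5 mM cAMP. Hits were scored by composite Z scores.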

PDE4D3 = biological target: T2, PDE4D3 (Homo sapiens, UniProt Q08499); assay: 5FOA growth assay in fission yeast strain expressing PDE4D3; assay type: cell-based; details: for EC50: OD600 0.6, read-out: ED50 for 5FOA growth assays, PDE4D3
T2 construct: targets used in the assays are full-length proteins (as opposed to simply the catalytic domain); expressed in transfected cells; host or cells: Schizosaccharomyces pombe, PDE gene integrated in place of cgs2
T2 sequence (Q08499 1-673 isoform Q08499-2): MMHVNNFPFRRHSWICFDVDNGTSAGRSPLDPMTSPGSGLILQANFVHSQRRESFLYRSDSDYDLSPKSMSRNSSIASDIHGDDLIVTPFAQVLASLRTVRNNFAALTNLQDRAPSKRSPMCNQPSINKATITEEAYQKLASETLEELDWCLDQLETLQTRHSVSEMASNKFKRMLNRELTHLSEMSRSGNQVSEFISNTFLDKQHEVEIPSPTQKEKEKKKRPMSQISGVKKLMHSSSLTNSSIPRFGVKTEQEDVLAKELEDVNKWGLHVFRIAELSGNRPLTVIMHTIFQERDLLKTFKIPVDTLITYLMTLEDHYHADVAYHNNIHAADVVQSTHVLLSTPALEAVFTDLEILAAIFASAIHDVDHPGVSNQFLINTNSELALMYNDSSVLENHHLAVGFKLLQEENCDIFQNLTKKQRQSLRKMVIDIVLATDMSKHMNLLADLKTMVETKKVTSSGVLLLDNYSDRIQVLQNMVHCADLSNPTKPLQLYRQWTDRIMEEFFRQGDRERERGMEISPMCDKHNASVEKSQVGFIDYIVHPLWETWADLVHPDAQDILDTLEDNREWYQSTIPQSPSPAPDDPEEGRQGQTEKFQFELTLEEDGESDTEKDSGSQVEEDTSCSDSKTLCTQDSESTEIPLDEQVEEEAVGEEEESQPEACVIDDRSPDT
Description: Cells were pregrown in EMM medium [MP Biomedicals (Solon, Ohio), 3% glucose, filter-sterilized to avoid carmelization, which would introduce variability into the optical density of the medium] containing from 0 mM to 2.5 mM cAMP (or either 0.5 mM or 1.0 mM cGMP). This was to repress expression of the fbp1-ura4 reporter prior to exposure of cells to 5FOA medium. Cells were grown at 30° C. to exponential phase (approximately 10^7 cells/ml). […] Starting cell concentrations ranged from 0.5×10^5 to 4×10^5 cells/ml depending on the screening strain. […] Other positive control dishes contained 5 mM cAMP in the 5FOA medium for PDEs that lack appropriate control compounds. Cultures were grown for 48 hours at 30° C., sealed in an airtight container with moist paper towels to prevent evaporation. Optical densities (OD600) of cultures were measured using a microplate reader. Bioinformatic analysis of the results to determine composite Z scores was performed as previously described (1, 3).

[2] = system: PDE4A, PDE4B, PDE4D, PDE7A, PDE7B, PDE8A, PDE3A; assay: Summary of PDE inhibitor profile; design: key to inhibitor class, Table 15: (1): Strong PDE4A5 inhibitor; (2): Strong PDE4A, 4B inhibitor; Moderate PDE4D inhibitor; (3): Strong PDE4A. 4B inhibitor; (4): Strong PDE4A, 4B, PDE7A inhibitor: Weak PDE4D inhibitor; key to inhibitor class, Table 16: (1): Weak PDE7A inhibitor; (2): Strong PDE7A inhibitor; (3): Lillte/no activity under conditions used; (4): Weak PDE4A inhibitor
PDE4A1 [3] = biological target: T1, PDE4A1; assay: cAMP response in yeast strain expressing PDE4A1; assay type: cell-based, Murine
From the text: (§1) Values represent the average and SD of two or three independent experiments. […] The strains used are as in FIG. 5A, together with strain CHP1141 (PDE8A). Values represent the average and SD of two or three independent experiments.
(§2) Thus, PDE inhibition can be indirectly quantitated by measuring the effect of a compound on cAMP levels in target yeast strains.

PDE4B3 = biological target: T3, PDE4B3 (Mus musculus, UniProt Q8VBU5); assay: cAMP response in yeast strain expressing PDE4B3; assay type: cell-based, Murine
T3 construct: targets used in the assays are full-length proteins (as opposed to simply the catalytic domain); expressed in transfected cells; host or cells: Schizosaccharomyces pombe, PDE gene integrated in place of cgs2
T3 sequence (Q8VBU5 1-721): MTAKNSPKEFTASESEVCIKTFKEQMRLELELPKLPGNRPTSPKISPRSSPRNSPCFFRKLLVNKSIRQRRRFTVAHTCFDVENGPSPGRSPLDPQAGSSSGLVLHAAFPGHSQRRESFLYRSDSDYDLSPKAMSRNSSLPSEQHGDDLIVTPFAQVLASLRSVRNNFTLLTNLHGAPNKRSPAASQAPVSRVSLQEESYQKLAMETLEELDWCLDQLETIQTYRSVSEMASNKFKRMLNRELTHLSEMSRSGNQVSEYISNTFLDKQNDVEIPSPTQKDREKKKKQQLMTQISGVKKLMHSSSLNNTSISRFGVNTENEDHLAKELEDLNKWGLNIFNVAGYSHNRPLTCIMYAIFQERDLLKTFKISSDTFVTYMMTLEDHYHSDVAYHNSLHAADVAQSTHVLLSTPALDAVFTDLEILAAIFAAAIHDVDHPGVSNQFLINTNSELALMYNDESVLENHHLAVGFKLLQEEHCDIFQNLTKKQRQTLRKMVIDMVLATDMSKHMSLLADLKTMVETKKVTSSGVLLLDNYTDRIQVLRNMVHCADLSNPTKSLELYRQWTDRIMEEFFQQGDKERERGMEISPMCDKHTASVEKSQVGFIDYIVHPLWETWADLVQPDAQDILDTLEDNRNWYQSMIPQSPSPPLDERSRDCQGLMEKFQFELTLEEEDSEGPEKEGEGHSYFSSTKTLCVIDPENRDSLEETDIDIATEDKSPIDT
From the text: as §1, §2

[4] = value marked (m), read-out: ED50 for 5FOA growth assays, PDE4A1 (m)

Structure (SMILES): Cc1ccc2c(c1)CCC1CC(=O)CC[C@]21C (stereo partly drawn) [Compound 2158J12]
- 2 Assay (2 uM), 4A1 (PDE4A1 [1]; PDE 4A1): 2.18
- 1 Assay (20 uM) 4A1 (PDE4A1 [1]; PDE 4A1): 81.97
- 2 Assay (2 uM), 4D3 (PDE4D3; PDE 4D3): 40.17
- 1 Assay (20 uM) 4D3 (PDE4D3; 20 uM, PDE 4D3): 14.84

Structure (SMILES): CCC1CCc2c(sc3ncnc(N4CCOCC4)c23)C1 (stereo not drawn) [BC33]
- Composite Z score, PDE4A1 (PDE4A1 [1]): 50.594
- EC50 (PDE4A1 [1]; [4]): 23 µM
- EC50 (PDE4A1 [1]; value marked (r), read-out: ED50 for 5FOA growth assays, PDE4A1 (r)): 28 µM
- EC50 (PDE4D3): 33 µM
- PDE inhibitor profile, in words [2]: PDE4 inhibitor. It also shows some activity on PDE4D3 (but not 4D2)

Structure (SMILES): N#Cc1sc2sc(C#N)c(-c3ccco3)c2c1N [Compound 30]
- 2 Assay (2 uM), 4A1 (PDE4A1 [1]): 4.56
- cAMP Response, 4A1 (PDE4A1 [3]; Table 16, unit not given): 65.7
- cAMP Response, 4B3 (PDE4B3; Table 16, unit not given): 67
- inhibitor class, Table 16 [2]: 30 KM03472 (2)

Structure (SMILES): COc1ccc2c(c1)[C@@]1(C)CCC[C@](C)(CO)C1CC2 (stereo partly drawn) [Compound 2067M03]
- 2 Assay (2 uM), 4A1 (PDE4A1 [1]; PDE 4A1): 6.63
- 1 Assay (20 uM) 4A1 (PDE4A1 [1]; PDE 4A1): 11567
- 2 Assay (2 uM), 4D3 (PDE4D3; PDE 4D3): ND 1.24 ND ND ND

Structure (SMILES): Cc1sc2ncnc(Nc3ccccc3)c2c1C [BC64]
- Composite Z score, PDE4A1 (PDE4A1 [1]): 24.925
- EC50 (PDE4A1 [1]; [4]): 20 µM
- EC50 (PDE4D3): > 200 µM
- PDE inhibitor profile, in words [2]: moderate PDE7 inhibitor

Structure (SMILES): CCN(CC)c1ncnc2sc3c(c12)CCCC3 [BC44]
- Composite Z score, PDE4A1 (PDE4A1 [1]): 22.267
- EC50 (PDE4D3): 3.3 µM
- PDE inhibitor profile, in words [2]: very good PDE4 and PDE7 inhibitor, with low PDE4D inhibition

Structure (SMILES): COC(=O)C1=C(C)N(c2ccccc2Cl)C(=O)/C1=C\c1cccs1 [Compound 27]
- 2 Assay (2 uM), 4A1 (PDE4A1 [1]): 17.41
- 2 Assay (2 uM), 4D3 (PDE4D3): 0.00
- cAMP Response (% rolipram), 4A1 (PDE4A1 [3]): 78.00 % rolipram
- cAMP Response (% rolipram), 4B3 (PDE4B3): 71.00 % rolipram
- inhibitor class, Table 15 [2]: 27 (3)

Structure (SMILES): COC(=O)C1=C(C)N(C2CCCCC2)C(=O)/C1=C\c1cccs1 [Compound 22]
- 2 Assay (2 uM), 4A1 (PDE4A1 [1]): 27.01
- 2 Assay (2 uM), 4D3 (PDE4D3): 42.32
- cAMP Response (% rolipram), 4A1 (PDE4A1 [3]): 54.00 % rolipram
- cAMP Response (% rolipram), 4B3 (PDE4B3): 51.00 % rolipram
- inhibitor class, Table 15 [2]: 22 (4)
